According to patent US20240294478A1, “ANTI-CANCER COMPOUNDS AND METHODS OF USE” (YALE UNIVERSITY, priority 2021, published 2024):

Legend:
[1] = tested on: DNA repair foci in LN229 MGMT+/−, MMR+/− cells; experiment: Immunofluorescence foci assays (γH2AX, 53BP1, pRPA); type: cell-based, human; conditions: 20 μM, 2 to 48 h
Experimental: FIGS. 5A-5K: KL-50 activates DNA damage response pathways and cycle arrest in MGMT-cells, independent of MMR, and induces sensitivity in cells deficient in ICL or HR repair. […] Columns, mean; error bars, SD; n 5 technical replicates. FIGS. 5D-5K: KL-50 induces activation of the ATR-CHK1 and ATM-CHK2 signaling axes and delayed DNA repair foci formation in MGMT-deficient cells, independent of MMR status. […] Treatment with 1 μM doxorubicin for 24 h (Doxo) served as a positive control for p-CHK1 activation. […] Points, mean % cells with >10 foci; error bars, SD; n >5 technical replicates. […] Points, % cells with 10 foci, n>250 cells per condition.
Immunofluorescence Foci Assays. High-throughput immunofluorescence foci assays were performed at the Yale Center for Molecular Discovery (YCMD). Cells were seeded at 2000 cells/well in black polystyrene flat bottom 384-well plates (Greiner Bio-One) and allowed to adhere overnight. Compound addition was performed utilizing a Labcyte Echo 550 liquid handler (Beckman Coulter), with 6 replicates per test condition and 12 replicates per control condition. Following drug incubation, cells were fixed and stained for phospho-SER139-H2AX (yH2AX), 53BP1, or phospho-SER33-RPA2 (pRPA) as follows. […]

MGMT−/MMR+ cells = experiment: IR alkaline comet assay, LN229 MGMT-/MMR+; type: cell-based, human; conditions: for IR-induced comet tail (ICL formation): 200 μM; for comet tailing in the absence of IR: TMZ 200 μM, KL-50 200 μM, MMC 0.1 or 50 μM
Experimental: The IR alkaline comet assay, adapted for ICL detection was performed to determine if ICLs were formed in MGMT-cells treated with KL-50. In this assay, cells were sequentially exposed to genotoxins and ionizing radiation, and then analyzed by single cell alkaline gel electrophoresis. Attenuation of the IR-induced comet tail is indicative of ICL formation.
IR Alkaline Comet Assay. This assay was performed utilizing the CometAssay™ Kit (Trevigen) according to the alkaline assay protocol, with the addition of slide irradiation post-lysis. Cells were trypsinized, washed with 1×PBS, added to melted Comet LMAgarose (Trevigen), and spread on Trevigen CometSlides at a density of 1000 cells per sample in 50 μL. Lysis solution (Trevigen) with 10% DMSO was added overnight at 4° C. […] Slides were then placed in alkaline buffer (200 mM NaOH, 1 mM EDTA) for 45 min, followed by electrophoresis in 850 mL alkaline buffer for 45 min at 4° C. Slides were washed and stained with SYBR gold (Invitrogen) per Trevigen assay protocol. Slides were imaged on a Cytation 3 imaging reader (BioTek), and comets were analyzed using CometScore 2.0 software (TriTek).

Structure (SMILES) | γH2AX, 53BP1, pRPA foci formation [1] | IR-induced comet tail (ICL formation) (MGMT−/MMR+ cells) | comet tailing in the absence of IR (MGMT−/MMR+ cells)
NC(=O)c1ncn2c(=O)n(CCF)nnc12 [KL-50] | induced a maximal foci response at 48 h, specifically in MGMT-cells and irrespective of MMR status | reduced the % DNA in the tail to levels similar to those seen for 0.1 μM MMC | induced tailing
Cn1nnc2c(C(N)=O)ncn2c1=O [TMZ, 4-methyl-5-oxo-2,3,4,6,8-pentazabicyclo[4.3.0]nona-2,7,9-triene-9-carboxamide, reference compound] | induced a comparable response in MGMT-cells, but this was abolished in the absence of functional MMR | did not reduce DNA migration following IR | induced tailing
